In patent publication US8592629B2, “Sulfonamide derivatives as Nav 1.7 inhibitors” (Pfizer Limited, priority 2010, dated 2013):

Molecular target: T1, Nav1.7 (or SCN9A) channel (Homo sapiens, UniProt Q15858)
T1 construct: expressed in transfected cells
Assay: Nav1.7 (hSCN9A) block in HEK cells, PatchXpress 7000 automated electrophysiology, estimated IC50 (EIC50)
Assay type: cell-based
Conditions: PatchXpress assay; HEK cells stably transfected with hSCN9A, voltage-clamped at V1/2 of inactivation
Protocol: The ability of the compounds of formula (I) to block the Nav1.7 (or SCN9A) channel were measured using the assay described below.
Human Embryonic Kidney (HEK) cells were transfected with an hSCN9A construct using lipofectamine reagent (Invitrogen), using standard techniques. Cells stably expressing the hSCN9A constructs were identified by their resistance to G-418 (400 μg/ml). Clones were screened for expression using the whole-cell voltage-clamp technique.
HEK cells stably transfected with hSCN9A were maintained in DMEM medium supplemented with 10% heat-inactivated fetal bovine serum and 400 μg/ml G-418 in an incubator at 37° C. with a humidified atmosphere of 10% CO2. For HTS, cells were harvested from flasks by trypsinization and replated in an appropriate multi-well plate (typically 96 or 384 wells/plate) such that confluence would be achieved within 24 hours of plating. For electrophysiological studies, cells were removed from the culture flask by brief trypsinization and re-plated at low density onto glass cover slips. Cells were typically used for electrophysiological experiments within 24 to 72 hours after plating.
HEK cells stably transfected with hSCN9A were viewed under Hoffman contrast optics and placed in front of an array of flow pipes emitting either control or compound-containing extracellular solutions. All compounds were dissolved in dimethyl sulfoxide to make 10 mM stock solutions, which were then diluted into extracellular solution to attain the final concentrations desired. […] The voltage-dependence of inactivation was determined by applying a series of depolarizing prepulses (8 sec long in 10 mV increments) from a negative holding potential. The voltage was then immediately stepped to 0 mV to assess the magnitude of the sodium current. Currents elicited at 0 mV were plotted as a function of prepulse potential to allow estimation of the voltage at which 50% of the channels were inactivated (midpoint of inactivation or V1/2). Compounds were tested for their ability to inhibit hSCN9A sodium channels by activating the channel with a 20 msec voltage step to 0 mV following an 8 second conditioning prepulse to the empirically determined V1/2. Compound effect (% inhibition) was determined by difference in current amplitude before and after application of test compounds. For ease of comparison, “estimated IC-50” (EIC50) values were calculated from single point electrophysiology data by the following equation, (tested concentration, uM) X (100-% inhibition/% inhibition). Inhibition values <20% and >80% were excluded from the calculation.
Electrophysiological assays were conducted with PatchXpress 7000 hardware and associated software (Molecular Devices Corp). All assay buffers and solutions were identical to those used in conventional whole-cell voltage clamp experiments described above. hSCN9A cells were grown as above to 50%-80% confluency and harvested by trypsinization. Trypsinized cells were washed and resuspended in extracellular buffer at a concentration of 1×10^6 cells/ml. The onboard liquid handling facility of the PatchXpress was used for dispensing cells and application of test compounds. Determination of the voltage midpoint of inactivation was as described for conventional whole-cell recordings. Cells were then voltage-clamped to the empirically determined V1/2 and current was activated by a 20 msec voltage step to 0 mV.
Compounds of the Examples were tested in the assays described above and found to have the Nav1.7 EIC50 (μM) values specified in the table below. All data are derived from the PatchXpress assay unless explicitly stated otherwise.

T1 sequence (Q15858 whole entry): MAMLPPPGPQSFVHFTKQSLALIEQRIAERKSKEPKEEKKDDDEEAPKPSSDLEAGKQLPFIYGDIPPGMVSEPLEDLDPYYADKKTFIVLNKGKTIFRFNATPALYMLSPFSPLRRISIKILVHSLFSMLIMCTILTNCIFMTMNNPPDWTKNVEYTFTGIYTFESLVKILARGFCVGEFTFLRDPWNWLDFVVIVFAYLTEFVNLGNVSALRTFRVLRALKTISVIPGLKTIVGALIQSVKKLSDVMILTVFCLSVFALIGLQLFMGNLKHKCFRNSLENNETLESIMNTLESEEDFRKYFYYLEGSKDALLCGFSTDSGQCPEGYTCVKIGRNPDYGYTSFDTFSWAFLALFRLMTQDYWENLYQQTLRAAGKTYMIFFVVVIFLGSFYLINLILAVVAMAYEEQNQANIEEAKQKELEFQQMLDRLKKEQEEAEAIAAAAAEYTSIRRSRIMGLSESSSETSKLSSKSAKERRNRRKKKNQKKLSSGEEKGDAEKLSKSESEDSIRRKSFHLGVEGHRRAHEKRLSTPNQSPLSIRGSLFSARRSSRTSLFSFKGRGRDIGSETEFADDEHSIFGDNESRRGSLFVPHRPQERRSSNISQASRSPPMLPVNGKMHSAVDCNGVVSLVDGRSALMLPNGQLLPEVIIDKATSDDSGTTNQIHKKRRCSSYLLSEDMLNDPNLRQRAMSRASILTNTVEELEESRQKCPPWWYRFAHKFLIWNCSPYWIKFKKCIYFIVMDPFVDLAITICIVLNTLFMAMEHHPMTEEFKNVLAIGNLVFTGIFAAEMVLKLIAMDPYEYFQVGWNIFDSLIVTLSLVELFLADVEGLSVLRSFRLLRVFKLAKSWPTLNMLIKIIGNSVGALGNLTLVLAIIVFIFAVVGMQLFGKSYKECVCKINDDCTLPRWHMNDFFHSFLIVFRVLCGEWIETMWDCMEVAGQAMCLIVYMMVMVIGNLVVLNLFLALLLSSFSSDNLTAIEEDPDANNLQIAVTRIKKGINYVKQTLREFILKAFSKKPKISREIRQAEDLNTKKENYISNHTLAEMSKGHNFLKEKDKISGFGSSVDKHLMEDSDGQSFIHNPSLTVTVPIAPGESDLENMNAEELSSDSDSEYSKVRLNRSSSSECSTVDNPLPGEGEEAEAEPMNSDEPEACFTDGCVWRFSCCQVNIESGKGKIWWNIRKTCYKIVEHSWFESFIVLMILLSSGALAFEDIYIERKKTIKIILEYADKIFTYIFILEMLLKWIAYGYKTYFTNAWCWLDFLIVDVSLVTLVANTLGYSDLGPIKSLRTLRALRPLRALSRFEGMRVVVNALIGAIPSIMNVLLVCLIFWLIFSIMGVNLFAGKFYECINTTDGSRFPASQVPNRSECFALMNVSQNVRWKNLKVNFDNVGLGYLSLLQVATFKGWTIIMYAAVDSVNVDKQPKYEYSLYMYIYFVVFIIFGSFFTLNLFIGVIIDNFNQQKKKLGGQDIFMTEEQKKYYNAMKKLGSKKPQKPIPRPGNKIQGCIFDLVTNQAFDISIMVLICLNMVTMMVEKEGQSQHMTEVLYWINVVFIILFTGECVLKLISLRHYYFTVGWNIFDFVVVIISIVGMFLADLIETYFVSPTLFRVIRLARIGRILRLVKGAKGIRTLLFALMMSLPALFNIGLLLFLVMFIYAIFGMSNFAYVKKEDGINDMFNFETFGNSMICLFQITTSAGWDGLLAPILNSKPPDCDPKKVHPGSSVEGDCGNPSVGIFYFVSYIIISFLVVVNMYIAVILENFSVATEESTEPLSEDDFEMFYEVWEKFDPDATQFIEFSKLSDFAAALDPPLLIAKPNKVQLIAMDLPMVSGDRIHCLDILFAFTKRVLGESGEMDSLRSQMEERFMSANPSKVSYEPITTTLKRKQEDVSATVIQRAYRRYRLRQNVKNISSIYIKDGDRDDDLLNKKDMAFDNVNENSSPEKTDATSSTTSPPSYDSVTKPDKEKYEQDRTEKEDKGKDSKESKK

Row | SMILES | IC50
1 | CS(=O)(=O)NC(=O)c1cc(F)c(Oc2cnc(OC3CCC(F)(F)CC3)c(Cl)c2)cc1F [Example 65, 4-({5-chloro-6-[(4,4-difluorocyclohexyl)oxy]pyridin-3-yl}oxy)-2,5-difluoro-N-(methylsulfonyl)benzamide] | 650 nM
2 | CS(=O)(=O)NC(=O)c1cc(F)c(Oc2cnc(OCC(F)F)c(Cl)c2)cc1F [Example 66, 4-{[5-chloro-6-(2,2-difluoroethoxy)pyridin-3-yl]oxy}-2,5-difluoro-N-(methylsulfonyl)benzamide] | 650 nM
3 | CN1CCC(Oc2ncc(Oc3cc(F)c(C(=O)NS(C)(=O)=O)cc3F)cc2Cl)CC1 [Example 67, 4-({5-chloro-6-[(1-methylpiperidin-4-yl)oxy]pyridin-3-yl}oxy)-2,5-difluoro-N-(methylsulfonyl)benzamide] | 9900 nM
4 | CS(=O)(=O)NC(=O)c1cc(F)c(Oc2cnc(C(F)(F)F)c(Cl)c2)cc1F [Example 68, 4-{[5-chloro-6-(trifluoromethyl)pyridin-3-yl]oxy}-2,5-difluoro-N-(methylsulfonyl)benzamide] | 1800 nM
5 | COc1cc(C(=O)NS(C)(=O)=O)ccc1Oc1cnc(OC(C)C)c(Cl)c1 [Example 69, 4-[(5-chloro-6-isopropoxypyridin-3-yl)oxy]-3-methoxy-N-(methylsulfonyl)benzamide] | 250 nM
6 | CC(C)Oc1ncc(Oc2cc(F)c(C(=O)NS(C)(=O)=O)cc2F)cc1F [Example 71, 2,5-difluoro-4-[(5-fluoro-6-isopropoxypyridin-3-yl)oxy]-N-(methylsulfonyl)benzamide] | 1700 nM
7 | COc1c(F)c(Oc2cnc(OC(C)C)c(Cl)c2)cc(F)c1C(=O)NS(C)(=O)=O [Example 72, 4-[(5-chloro-6-isopropoxypyridin-3-yl)oxy]-3,6-difluoro-2-methoxy-N-(methylsulfonyl)benzamide] | > 1000 nM
8 | CC(C)Oc1ncc(Oc2ccc(C(=O)NS(C)(=O)=O)cc2C#N)cc1Cl [Example 73, 4-[(5-chloro-6-isopropoxypyridin-3-yl)oxy]-3-cyano-N-(methylsulfonyl)benzamide] | 620 nM
9 | CC(C)COc1ncc(Oc2ccc(C(=O)NS(C)(=O)=O)c(F)c2)cc1Cl [Example 74, 4-[(5-chloro-6-isobutoxypyridin-3-yl)oxy]-2-fluoro-N-(methylsulfonyl)benzamide] | 50 nM
10 | CC(C)(Oc1ncc(Oc2cc(F)c(C(=O)NS(C)(=O)=O)cc2Cl)cc1Cl)C(F)(F)F [Example 76, 5-chloro-4-{[5-chloro-6-(2,2,2-trifluoro-1,1-dimethylethoxy)pyridin-3-yl]oxy}-2-fluoro-N-(methylsulfonyl)benzamide] | 9.4 nM
11 | CS(=O)(=O)NC(=O)c1cc(Cl)c(Oc2cnc(OC(C(F)(F)F)C(F)(F)F)c(Cl)c2)cc1F [Example 77, 5-chloro-4-({5-chloro-6-[2,2,2-trifluoro-1-(trifluoromethyl)ethoxy]pyridin-3-yl}oxy)-2-fluoro-N-(methylsulfonyl)benzamide] | 15 nM
12 | CC(C)Nc1ncc(Oc2cc(F)c(C(=O)NS(C)(=O)=O)cc2F)cc1Cl [Example 79, 4-{[5-chloro-6-(isopropylamino)pyridin-3-yl]oxy}-2,5-difluoro-N-(methylsulfonyl)benzamide] | 150 nM
13 | CS(=O)(=O)NC(=O)c1cc(F)c(Oc2cnc(OC(CF)CF)c(Cl)c2)cc1F [Example 80, 4-({5-chloro-6-[2-fluoro-1-(fluoromethyl)ethoxy]pyridin-3-yl}oxy)-2,5-difluoro-N-(methylsulfonyl)benzamide] | 1500 nM
14 | CC(C)Oc1ncc(Oc2ccc(C(=O)NS(C)(=O)=O)cc2Cl)cc1Cl [Example 82, 3-chloro-4-[(5-chloro-6-isopropoxypyridin-3-yl)oxy]-N-(methylsulfonyl)benzamide] | 42 nM
15 | COc1ncc(Oc2ccc(C(=O)NS(C)(=O)=O)cc2Cl)cc1Cl [Example 83, 3-chloro-4-[(5-chloro-6-methoxypyridin-3-yl)oxy]-N-(methylsulfonyl)benzamide] | > 10000 nM
16 | CC(C)Oc1ncc(Oc2ccc(C(=O)NS(C)(=O)=O)cc2)cc1Cl [Example 84, 4-[(5-chloro-6-isopropoxypyridin-3-yl)oxy]-N-(methylsulfonyl)benzamide] | 850 nM

Row | SMILES | IC50
17 | COc1ncc(Oc2ccc(C(=O)NS(C)(=O)=O)cc2)cc1Cl [Example 85, 4-[(5-chloro-6-methoxypyridin-3-yl)oxy]-N-(methylsulfonyl)benzamide] | > 10000 nM
18 | COc1cc(Oc2cnc(OC(C)C)c(Cl)c2)ccc1C(=O)NS(C)(=O)=O [Example 86, 4-[(5-chloro-6-isopropoxypyridin-3-yl)oxy]-2-methoxy-N-(methylsulfonyl)benzamide] | 7200 nM
19 | CS(=O)(=O)NC(=O)c1cc(F)c(Oc2ccc(Cl)c3cccnc23)cc1F [Example 87, 4-[(5-chloroquinolin-8-yl)oxy]-2,5-difluoro-N-(methylsulfonyl)benzamide] | > 3000 nM
20 | CS(=O)(=O)NC(=O)c1cc(F)c(Oc2cc(Cl)cc3cccnc23)cc1F [Example 88, 4-[(6-chloroquinolin-8-yl)oxy]-2,5-difluoro-N-(methylsulfonyl)benzamide] | > 3000 nM
21 | COc1ccncc1Oc1cc(F)c(C(=O)NS(C)(=O)=O)cc1F [Example 89, 2,5-difluoro-4-(4-methoxypyridin-3-yloxy)-N-(methylsulfonyl)benzamide] | > 3000 nM
22 | CS(=O)(=O)NC(=O)c1cc(F)c(Oc2cccn3ccnc23)cc1F [Example 90, 2,5-difluoro-4-(imidazo[1,2-a]pyridin-8-yloxy)-N-(methylsulfonyl)benzamide] | > 3000 nM
23 | CS(=O)(=O)NC(=O)c1cc(Cl)c(Oc2cnc(C3CC3)c(Cl)c2)cc1Cl [Example 91, 2,5-Dichloro-4-(5-chloro-6-cyclopropylpyridin-3-yloxy)-N-(methylsulfonyl)benzamide] | 680 nM
24 | O=C(NS(=O)(=O)C1CC1)c1cc(Cl)c(Oc2cnc(C3CC3)c(Cl)c2)cc1F [Example 92, 5-chloro-4-(5-chloro-6-cyclopropylpyridin-3-yloxy)-N-(cyclopropylsulfonyl)-2-fluorobenzamide] | 50 nM
25 | CS(=O)(=O)NC(=O)c1cc(Cl)c(Cc2cnc(C3CC3)c(Cl)c2)cc1F [Example 93, 5-chloro-4-((5-chloro-6-cyclopropylpyridin-3-yl)methyl)-2-fluoro-N-(methylsulfonyl)benzamide] | 470 nM
26 | CC(C)Oc1ncc(Sc2cc(F)c(C(=O)NS(C)(=O)=O)cc2Cl)cc1Cl [Example 94, 5-chloro-4-[(5-chloro-6-isopropoxypyridin-3-yl)thio]-2-fluoro-N-(methylsulfonyl)benzamide] | 830 nM
27 | CS(=O)(=O)NC(=O)c1cc(Cl)c(Oc2cnc(N3CCC(F)(F)C3)c(Cl)c2)cc1F [Example 95, 5-chloro-4-(5-chloro-6-(3,3-difluoropyrrolidin-1-yl)pyridin-3-yloxy)-2-fluoro-N-(methylsulfonyl)benzamide] | 37 nM
28 | CS(=O)(=O)NC(=O)c1cc(Cl)c(Oc2cnc(N3CC(F)(F)C3)c(Cl)c2)cc1F [Example 96, 5-Chloro-4-(5-chloro-6-(3,3-difluoroazetidin-1-yl)pyridin-3-yloxy)-2-fluoro-N-(methylsulfonyl)benzamide] | 73 nM
29 | C[C@H](Oc1ncc(Oc2cc(F)c(C(=O)NS(C)(=O)=O)cc2Cl)cc1Cl)C(F)(F)F [Example 98, 5-chloro-4-({5-chloro-6-[(1S)-2,2,2-trifluoro-1-methylethoxy]pyridin-3-yl}oxy)-2-fluoro-N-(methylsulfonyl)benzamide] | 12 nM
30 | C[C@@H](Oc1ncc(Oc2cc(F)c(C(=O)NS(C)(=O)=O)cc2Cl)cc1Cl)C(F)(F)F [Example 99, 5-chloro-4-({5-chloro-6-[(1R)-2,2,2-trifluoro-1-methylethoxy]pyridin-3-yl}oxy)-2-fluoro-N-(methylsulfonyl)benzamide] | 15 nM
31 | CS(=O)(=O)NC(=O)c1cc(Cl)c(Oc2cnc(Oc3ccccc3)c(Cl)c2)cc1F [Example 100, 5-chloro-4-[(5-chloro-6-phenoxypyridin-3-yl)oxy]-2-fluoro-N-(methylsulfonyl)benzamide] | 72 nM
